Measured values: patent publication US20200270309A1, “MALEIMIDE GROUP-MODIFIED ANGIOGENESIS INHIBITOR HM-1 AND USE THEREOF” (NANJING ANJI BIOLOGICAL TECHNOLOGY CO., LTD, priority 2017, published 2020)
Where two headings read alike, the source gives them in different places. Ends that are not written are not given here. Peptide text beside a SMILES is read from it. * marks the point of attachment. Hexanoyl(6-maleimido) = O=C1C=CC(=O)N1CCCCCC(=O)*; X11 = O=C1C=CC(=O)N1CCOCCOCCOCCOCCOCCCCCC(=O)*; X4 = O=C1C=CC(=O)N1CCOCCOCCOCCOCCCCCCCC(=O)*; X40 = O=C1C=CC(=O)N1c1ccc(CCCCCCCCC(=O)*)cc1; X5 = O=C1C=CC(=O)N1CCOCCOCCOCCOCCOCCOCC(=O)*; X34 = O=C1C=CC(=O)N1CCOCCOCCOCCCCCC(=O)*; X62 = O=C1C=CC(=O)N1CCCCCCCCCCCCC(=O)*; X50 = O=C1C=CC(=O)N1c1ccc(CC(=O)*)cc1; X67 = O=C1C=CC(=O)N1CCCCCCCCCC(=O)*; X83 = O=C1C=CC(=O)N1CCCCCCC(=O)*

Assay: Half-lives and pharmacokinetic parameters of polypeptides vs HM-1
Conditions: in vivo
[1] = read-out: T1/2β (half-life) (converted)

AUC(0-inf)	MRT inf	clearance	half-life (T1/2β (half-life))	AUC(0-inf) (read-out: AUC0-∞)	clearance (read-out: CL (converted))	MRT inf (read-out: MRT0-∞)	half-life [1]	half-life (read-out: half-life (converted))	Molecule
30500 ± 7170 ng·h/mL	54.6 ± 12.2 h	0.547 mL/min/kg	37.86 ± 0.28 h	–	–	–	–	–	C[C@H](NC(=O)CNC(=O)[C@H](CCCNC(=N)N)NC(=O)CCCCCCN1C(=O)C=CC1=O)C(=O)N[C@@H](CC(=O)O)C(=O)N[C@@H](CCCNC(=N)N)C(=O)N[C@@H](C)C(=O)NCC(=O)NCC(=O)NCC(=O)NCC(=O)N[C@@H](CCCNC(=N)N)C(=O)NCC(=O)N[C@@H](CC(=O)O)C(=O)O [X6] (X83-RGADRAGGGGRGD-OH)
–	–	–	–	32800 ± 8410 ng·h/mL	24.8 mL/min/kg	0.068 ± 0.012 h	0.35 ± 0.14 h	0.34 h	H-RGADRAGGGGRGD [HM-1, Arg-Gly-Ala-Asp-Arg-Ala-Gly-Gly-Gly-Gly-Arg-Gly-Asp]
26800 ± 8440 ng·h/mL	48 ± 11.6 h	0.622 mL/min/kg	33.26 ± 0.28 h	–	–	–	–	–	C[C@H](NC(=O)CNC(=O)[C@H](CCCNC(=N)N)NC(=O)CCCCCCCCc1ccc(N2C(=O)C=CC2=O)cc1)C(=O)N[C@@H](CC(=O)O)C(=O)N[C@@H](CCCNC(=N)N)C(=O)N[C@@H](C)C(=O)NCC(=O)NCC(=O)NCC(=O)NCC(=O)N[C@@H](CCCNC(=N)N)C(=O)NCC(=O)N[C@@H](CC(=O)O)C(=O)O [X44] (X40-RGADRAGGGGRGD-OH)
27200 ± 7210 ng·h/mL	48.7 ± 13.6 h	0.612 mL/min/kg	33.76 ± 0.28 h	–	–	–	–	–	C[C@H](NC(=O)CNC(=O)[C@H](CCCNC(=N)N)NC(=O)Cc1ccc(N2C(=O)C=CC2=O)cc1)C(=O)N[C@@H](CC(=O)O)C(=O)N[C@@H](CCCNC(=N)N)C(=O)N[C@@H](C)C(=O)NCC(=O)NCC(=O)NCC(=O)NCC(=O)N[C@@H](CCCNC(=N)N)C(=O)NCC(=O)N[C@@H](CC(=O)O)C(=O)O [X37] (X50-RGADRAGGGGRGD-OH)
33900 ± 7640 ng·h/mL	60.6 ± 10.5 h	0.492 mL/min/kg	42.01 ± 0.33 h	–	–	–	–	–	C[C@H](NC(=O)CNC(=O)[C@H](CCCNC(=N)N)NC(=O)CCCCCCCOCCOCCOCCOCCN1C(=O)C=CC1=O)C(=O)N[C@@H](CC(=O)O)C(=O)N[C@@H](CCCNC(=N)N)C(=O)N[C@@H](C)C(=O)NCC(=O)NCC(=O)NCC(=O)NCC(=O)N[C@@H](CCCNC(=N)N)C(=O)NCC(=O)N[C@@H](CC(=O)O)C(=O)O [X76] (X4-RGADRAGGGGRGD-OH)
–	–	–	–	34000 ± 6880 ng·h/mL	0.49 mL/min/kg	61 ± 10.1 h	42.24 ± 0.29 h	–	C[C@H](NC(=O)CNC(=O)[C@H](CCCNC(=N)N)NC(=O)CCCCCN1C(=O)C=CC1=O)C(=O)N[C@@H](CC(=O)O)C(=O)N[C@@H](CCCNC(=N)N)C(=O)N[C@@H](C)C(=O)N[C@@H](CCC(=O)O)C(=O)N[C@@H](C)C(=O)N[C@@H](C)C(=O)N[C@@H](C)C(=O)N[C@@H](CCCCN)C(=O)N[C@@H](CCCNC(=N)N)C(=O)NCC(=O)N[C@@H](CC(=O)O)C(=O)O [P12] ({Hexanoyl(6-maleimido)}-RGADRAEAAAKRGD-OH; C-terminus assumed)
29200 ± 8180 ng·h/mL	52.2 ± 9.78 h	0.572 mL/min/kg	36.2 ± 0.25 h	–	–	–	–	–	C[C@H](NC(=O)CNC(=O)[C@H](CCCNC(=N)N)NC(=O)CCCCCCCCCCCCN1C(=O)C=CC1=O)C(=O)N[C@@H](CC(=O)O)C(=O)N[C@@H](CCCNC(=N)N)C(=O)N[C@@H](C)C(=O)NCC(=O)NCC(=O)NCC(=O)NCC(=O)N[C@@H](CCCNC(=N)N)C(=O)NCC(=O)N[C@@H](CC(=O)O)C(=O)O [X12] (X62-RGADRAGGGGRGD-OH)
29100 ± 8230 ng·h/mL	52.1 ± 10.3 h	0.573 mL/min/kg	36.09 ± 0.28 h	–	–	–	–	–	C[C@H](NC(=O)CNC(=O)[C@H](CCCNC(=N)N)NC(=O)COCCOCCOCCOCCOCCOCCN1C(=O)C=CC1=O)C(=O)N[C@@H](CC(=O)O)C(=O)N[C@@H](CCCNC(=N)N)C(=O)N[C@@H](C)C(=O)NCC(=O)NCC(=O)NCC(=O)NCC(=O)N[C@@H](CCCNC(=N)N)C(=O)NCC(=O)N[C@@H](CC(=O)O)C(=O)O [X84] (X5-RGADRAGGGGRGD-OH)
31200 ± 7350 ng·h/mL	56 ± 13.3 h	0.537 mL/min/kg	38.78 ± 0.31 h	–	–	–	–	–	C[C@H](NC(=O)CNC(=O)[C@H](CCCNC(=N)N)NC(=O)CCCCCCCCCN1C(=O)C=CC1=O)C(=O)N[C@@H](CC(=O)O)C(=O)N[C@@H](CCCNC(=N)N)C(=O)N[C@@H](C)C(=O)NCC(=O)NCC(=O)NCC(=O)NCC(=O)N[C@@H](CCCNC(=N)N)C(=O)NCC(=O)N[C@@H](CC(=O)O)C(=O)O [X9] (X67-RGADRAGGGGRGD-OH)
30700 ± 8170 ng·h/mL	54.9 ± 11.5 h	0.543 mL/min/kg	38.06 ± 0.28 h	–	–	–	–	–	C[C@H](NC(=O)CNC(=O)[C@H](CCCNC(=N)N)NC(=O)CCCCCOCCOCCOCCOCCOCCN1C(=O)C=CC1=O)C(=O)N[C@@H](CC(=O)O)C(=O)N[C@@H](CCCNC(=N)N)C(=O)N[C@@H](C)C(=O)NCC(=O)NCC(=O)NCC(=O)NCC(=O)N[C@@H](CCCNC(=N)N)C(=O)NCC(=O)N[C@@H](CC(=O)O)C(=O)O [X81] (X11-RGADRAGGGGRGD-OH)
31600 ± 8030 ng·h/mL	56.4 ± 11.6 h	0.528 mL/min/kg	39.09 ± 0.28 h	–	–	–	–	–	C[C@H](NC(=O)CNC(=O)[C@H](CCCNC(=N)N)NC(=O)CCCCCOCCOCCOCCN1C(=O)C=CC1=O)C(=O)N[C@@H](CC(=O)O)C(=O)N[C@@H](CCCNC(=N)N)C(=O)N[C@@H](C)C(=O)NCC(=O)NCC(=O)NCC(=O)NCC(=O)N[C@@H](CCCNC(=N)N)C(=O)NCC(=O)N[C@@H](CC(=O)O)C(=O)O [X67] (X34-RGADRAGGGGRGD-OH)
